Measured values: patent US20050226821A1, “Cosmetic formulations containing l-arginine oligomers” (priority 2002, published 2005)

Key:
C57 black six mice = test: Topical enhancement of hair growth after depilation, daily application for 14 days; type: in vivo; design: key to Hair Shaft Length, Comparison anova (95) vs. control / Follicle Area, Comparison anova (95) vs. control / Number of follicles per cross-section, Comparison anova (95) vs. control: **: significant by fisher PLSD and Scheffe F-test (P = 0.0001)
Protocol: A preparation of (L-arg)-(L-arg)-(L-arg)-(L-arg)-(L-arg)-(L-arg)-(L-arg)-(L-arg)-(L-arg) or [LR9] was obtained from Sigma Genosys at >70% purity. To achieve a therapeutic benefit on hair growth, a 10× stock of LR9 was prepared as 70 mg in 80 μl PBS. To 0.2 ml of Cetaphil moisturizer base was added the following: • LR9: 20 μl of 10× LR9 stock • Control: 20 μl PBS
After addition of LR9/PBS to moisturizer base, samples were mixed to homogeneity and stored at 4C overnight. C57 black six mice at 8 weeks of age were anesthetized with 3% isoflurane by inhalation, were shaved, and underwent depilation at mid-scapular dorsal region of 2 cm×2 cm with a rosin mixture (Surgiwax, Ardell, Commerce, Calif.) to induce the synchronized adolescent first hair cycle. Moisturizer was applied daily at 0.2 cc per day for either LR9 treatment or control for a fourteen day period at n=4 per group. After 14 days application the treated skin segment was harvested en bloc and subdivided into three equal portions: a cranial portion, a left lateral portion and a right lateral portion. The cranial portion and the left lateral portion were fixed in 10% neutral buffered formalin for 12-16 hours, then rinsed in 70% ethanol and embedded in paraffin. The right lateral portion was snap frozen in OCT medium at the time of harvest and stored at −35C until use.
Paraffin-embedded specimens were sectioned at 4-6 microns, deparaffinized, and stained with a combination of Verhoeff elastica stain and the Masson trichrome stain for morphological assessment of follicle area and number. Frozen samples underwent random hair pulls to determine hair shaft length. All procedures and analyses were performed by blinded observers. […] Images were analyzed using Image Pro Plus software (Media Cybernetics, Silver Spring, Md.) to determine total cross-sectional follicle area, follicle number, or hair length. Mean and standard error were assessed using Statview (Abacus Concepts, Berkeley, Calif.), with comparisons made using ANOVA repeated measures and significance determined at 95% with post-hoc testing using Fisher PLSD or Scheffe F-test.

human subjects = test: Topical lip color and contour enhancement, image analysis of lip area after lip gloss application; type: in vivo; conditions: mean across 1, 5, 10, 15 and 30 minutes after application, Revlon Lip Gloss base
Protocol: A preparation of (L-arg)-(L-arg)-(L-arg)-(L-arg)-(L-arg)-(L-arg)-(L-arg)-(L-arg)-(L-arg) or [LR9] was obtained from Sigma Genosys at >70% purity. […], a 1× stock of LR9 for lip enhancement was prepared as 35 mg in 50 μl pbs, which was added to 2.0 ml of Revlon Lip Gloss base for the following groups: • LR9 • Control (base only)
After addition of LR9 to lip gloss base, samples were mixed to homogeneity and stored at room temperature overnight. After baseline image acquisition using a Minolta Dimage 7 digital camera set to 105 macro (1:1) with standard lighting and scaling conditions, human subjects underwent topical application of LR9 or control gloss. All participants were blinded with respect to treatment or control application. Additional digital micrographs were acquired at time 0, 1, 5, 10, 15, and 30 minutes after lip gloss application. The gloss was then removed and participants asked to record duration of any lip contour or color changes. Additionally, any complications (irritation, etc) were also tracked for each. Each subject was treated at different timepoints with both groups (treatment or control). Image analysis of total photographic area was performed for each group, with care taken to normalize each to scales included at the time of photograph acquisition. Baseline images (pre-application) were verified to have statistically similar values between pre-LR9 gloss and pre-base gloss applications for each participant. Mean and standard error across timepoints 1, 5, 10, 15, and 30 minutes were determined for each participant after LR9-gloss or base gloss application. Values for each as well as photos acquired at matching timepoints are presented by participant below for 3 participants. [drawing]

## (L-arg)-(L-arg)-(L-arg)-(L-arg)-(L-arg)-(L-arg)-(L-arg)-(L-arg)-(L-arg) [LR9]
C57 black six mice; 14 days topical
  Number of follicles per cross-section, Mean: 406.417
C57 black six mice; 14 days topical, 0.2 cc per day in Cetaphil moisturizer base, n=4, 1 pixel = 2.774 microns
  Hair Shaft Length, Mean: 1612.424 pixels
C57 black six mice; 14 days topical, 1 square pixel = 7.69 square microns
  Follicle Area (by total x-sectional area), Mean: 53546.00 square pixels
C57 black six mice; 14 days, LR9 vs. control
  Follicle Area, Comparison anova (95) vs. control: **
  Hair Shaft Length, Comparison anova (95) vs. control: **
  Number of follicles per cross-section, Comparison anova (95) vs. control: **
C57 black six mice; without any additional transdermal delivery platform
  Hair growth as measured by hair shaft length, total follicle area, and number of hair follicles: statistically significantly enhance hair growth
Human subjects; first of 3 participants
  Mean Area: 7.745 sq. in.
Human subjects; second of 3 participants
  Mean Area: 7.411 sq. in.
Human subjects; third of 3 participants
  Mean Area: 7.911 sq. in.
